In patent US7462717B2, “C6-and C9-substituted chromeno[4,3-c]isoxazoline derivatives and their use as anti-depressants” (Janssen Pharmaceutica N.V., priority 2002, dated 2008):

Tests used:
hα2A receptor = target: T1, hα2A receptor (Homo sapiens, UniProt P08913); assay: Radioligand binding experiment for α2A-adrenergic receptor ([3H]-raulwolscine); conditions: membranes of CHO cells transfected with human α2A receptor; [3H]raulwolscine 1 nM
T1 construct: expressed in transfected cells
T1 sequence (P08913 1-465): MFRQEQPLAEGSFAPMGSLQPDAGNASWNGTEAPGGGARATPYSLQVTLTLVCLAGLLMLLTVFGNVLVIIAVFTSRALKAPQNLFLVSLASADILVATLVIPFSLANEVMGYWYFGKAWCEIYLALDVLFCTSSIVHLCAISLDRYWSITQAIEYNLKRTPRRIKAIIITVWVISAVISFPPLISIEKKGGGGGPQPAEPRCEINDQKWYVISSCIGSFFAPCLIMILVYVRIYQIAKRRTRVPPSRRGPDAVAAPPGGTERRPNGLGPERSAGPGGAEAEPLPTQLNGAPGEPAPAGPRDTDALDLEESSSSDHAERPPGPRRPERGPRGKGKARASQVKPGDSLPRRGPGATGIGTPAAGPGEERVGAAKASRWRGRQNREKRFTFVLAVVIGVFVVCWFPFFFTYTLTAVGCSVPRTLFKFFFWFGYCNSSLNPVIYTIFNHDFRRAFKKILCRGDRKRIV
Protocol: (§1) The interaction of the compounds of Formula (I) with hα2-receptors and h5-HT-transporters was assessed in in vitro radioligand binding experiments. In general, a low concentration of a radioligand with a high binding affinity for a particular receptor or transporter is incubated with a sample of a tissue preparation enriched in a particular receptor or transporter or with a preparation of cells expressing cloned human receptors in a buffered medium. During the incubation, the radioligand binds to the receptor or transporter. When equilibrium of binding is reached, the receptor bound radioactivity is separated from the non-bound radioactivity, and the receptor- or transporter-bound activity is counted. The interaction of the test compounds with the receptor is assessed in competition binding experiments. Various concentrations of the test compound are added to the incubation mixture containing the receptor- or transporter preparation and the radioligand. The test compound in proportion to its binding affinity and its concentration inhibits binding of the radioligand. The radioligand used for hα2A, hα2B and hα2C receptor binding was [^3H]-raulwolscine and for the h5-HT transporter was [^3H]paroxetine.
(§2) CHO cells, stabile transfected with human adrenergic-α2A-, -α2B or α2C receptor cDNA, were cultured in Dulbecco's Modified Eagle's Medium (DMEM)/Nutrient mixture Ham's F12 (ratio 1:1) (Gibco, Gent-Belgium) supplemented with 10% heat inactivated fetal calf serum (Life Technologies, Merelbeke-Belgium) and antibiotics (100 IU/ml penicillin G, 100 μg/ml streptomycin sulphate, 110 μg/ml pyruvic acid and 100 μg/ml L-glutamine). One day before collection, cells were induced with 5 mM sodiumbutyrate. Upon 80-90% of confluence, cells were scraped in phosphate buffered saline without Ca^2+ and Mg^2+ and collected by centrifugation at 1500×g for 10 min. The cells were homogenised in Tris-HCl 50 mM using an Ultraturrax homogenizer and centrifuged for 10 min at 23,500×g. The pellet was washed once by resuspension and rehomogenization and the final pellet was resuspended in Tris-HCl, divided in 1 ml aliquots and stored at −70° C.
(§3) Membranes were thawed and re-homogenized in incubation buffer (glycylglycine 25 mM, pH 8.0). In a total volume of 500 μl, 2-10 μg protein was incubated with [^3H]raulwolscine (NET-722) (New England Nuclear, USA) (1 nM final concentration) with or without competitor for 60 min at 25° C. followed by rapid filtration over GF/B filter using a Filtermate 196 harvester (Packard, Meriden, Conn.). Filters were rinsed extensively with ice-cold rinsing buffer (Tris-HCl 50 mM pH 7.4). Filter-bound radioactivity was determined by scintillation counting in a Topcount (Packard, Meriden, Conn.) and results were expressed as counts per minute (cpm). Non-specific binding was determined in the presence of 1 μM oxymetazoline for hα2A- and hα2B-receptors and 1 μM spiroxatrine for hα2C receptors.
(§4) Data from assays in the presence of compound were calculated as a percentage of total binding measured in the absence of test compound. Inhibition curves, plotting percent of total binding versus the log value of the concentration of the test compound, were automatically generated, and sigmoidal inhibition curves were fitted using non-linear regression. The pIC50 values of test compounds were derived from individual curves. All compounds according to Formula (I) produced an inhibition at least at the hα2A site (but often also at the hα2B and hα2C sites) and simultaneously at the 5-HT transporter site of more than 50% (PIC50) at a test concentration ranging between 10^−6 M and 10^−9 M in a concentration-dependent manner.

hα2C receptor = target: T2, hα2C receptor (Homo sapiens, UniProt P18825); assay: Radioligand binding experiment for α2C-adrenergic receptor ([3H]-raulwolscine); conditions: membranes of CHO cells transfected with human α2C receptor; [3H]raulwolscine 1 nM
T2 construct: expressed in transfected cells
T2 sequence (P18825 1-462): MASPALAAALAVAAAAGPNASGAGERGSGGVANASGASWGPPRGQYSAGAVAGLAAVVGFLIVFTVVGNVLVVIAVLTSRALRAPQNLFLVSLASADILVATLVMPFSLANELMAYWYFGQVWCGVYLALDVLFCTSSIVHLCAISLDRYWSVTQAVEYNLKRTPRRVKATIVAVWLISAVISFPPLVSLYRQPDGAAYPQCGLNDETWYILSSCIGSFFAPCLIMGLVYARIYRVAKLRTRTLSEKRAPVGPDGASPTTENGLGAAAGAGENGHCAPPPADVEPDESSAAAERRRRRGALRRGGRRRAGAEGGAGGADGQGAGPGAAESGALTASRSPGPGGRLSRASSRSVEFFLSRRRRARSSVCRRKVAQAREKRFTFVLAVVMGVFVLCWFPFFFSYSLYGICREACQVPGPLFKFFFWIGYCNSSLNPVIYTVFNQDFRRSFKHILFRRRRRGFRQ
Protocol: as §1, §2, §3, §4

h5-HT transporter = target: T3, h5-HT transporter (Homo sapiens, UniProt P31645); assay: Radioligand binding experiment for 5-HT transporter ([3H]paroxetine); conditions: human platelet membranes; [3H]paroxetine 0.5 nM; read-out: 5-HTT (converted)
T3 construct: Human platelet membranes (Oceanix Biosciences Corporation, Hanover, Md., USA) were thawed; tissue Oceanix Biosciences Corporation; host or cells: human platelet membranes
Protocol: as §1
Human platelet membranes (Oceanix Biosciences Corporation, Hanover, Md., USA) were thawed, diluted in buffer (Tris-HCl 50 mM, 120 mM NaCl and 5 mM KCl) and quickly (max 3 s) homogenised with an Ultraturrax homogenizer. In a total volume of 250 μL, 50-100 μg protein was incubated with [^3H]paroxetine (NET-869) (New England Nuclear, USA) (0.5 nM final concentration) with or without competitor for 60 min at 25° C. Incubation was stopped by rapid filtration of the incubation mixture over GF/B filters, pre-wetted with 0.1% polyethyleneamine, using a Filtermate 196 harvester (Packard, Meriden, Conn.). Filters were rinsed extensively with ice-cold buffer and radioactivity on the filters was counted in a Topcount liquid scintillation counter (Packard, Meriden, Conn.). Data were expressed as cpm. Imipramine (at 1 μM final concentration) was used to determine the non-specific binding.
as §4

hα2B receptor = target: T4, hα2B receptor (Homo sapiens, UniProt P18089); assay: Radioligand binding experiment for α2B-adrenergic receptor ([3H]-raulwolscine); conditions: membranes of CHO cells transfected with human α2B receptor; [3H]raulwolscine 1 nM
T4 construct: expressed in transfected cells
T4 sequence (P18089 1-450): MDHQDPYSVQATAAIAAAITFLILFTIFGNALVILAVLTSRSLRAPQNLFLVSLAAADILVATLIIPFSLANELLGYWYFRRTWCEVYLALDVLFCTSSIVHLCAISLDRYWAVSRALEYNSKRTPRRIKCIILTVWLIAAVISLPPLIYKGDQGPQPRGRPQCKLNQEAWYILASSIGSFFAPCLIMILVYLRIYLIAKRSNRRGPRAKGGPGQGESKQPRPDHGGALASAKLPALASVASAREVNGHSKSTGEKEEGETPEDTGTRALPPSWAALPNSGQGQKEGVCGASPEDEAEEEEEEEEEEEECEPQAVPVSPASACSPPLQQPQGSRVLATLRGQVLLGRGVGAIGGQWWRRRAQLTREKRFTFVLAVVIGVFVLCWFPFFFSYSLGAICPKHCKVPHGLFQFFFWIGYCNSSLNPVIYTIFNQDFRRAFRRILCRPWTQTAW
Protocol: as §1, §2, §3, §4

T3 sequence (P31645 whole entry): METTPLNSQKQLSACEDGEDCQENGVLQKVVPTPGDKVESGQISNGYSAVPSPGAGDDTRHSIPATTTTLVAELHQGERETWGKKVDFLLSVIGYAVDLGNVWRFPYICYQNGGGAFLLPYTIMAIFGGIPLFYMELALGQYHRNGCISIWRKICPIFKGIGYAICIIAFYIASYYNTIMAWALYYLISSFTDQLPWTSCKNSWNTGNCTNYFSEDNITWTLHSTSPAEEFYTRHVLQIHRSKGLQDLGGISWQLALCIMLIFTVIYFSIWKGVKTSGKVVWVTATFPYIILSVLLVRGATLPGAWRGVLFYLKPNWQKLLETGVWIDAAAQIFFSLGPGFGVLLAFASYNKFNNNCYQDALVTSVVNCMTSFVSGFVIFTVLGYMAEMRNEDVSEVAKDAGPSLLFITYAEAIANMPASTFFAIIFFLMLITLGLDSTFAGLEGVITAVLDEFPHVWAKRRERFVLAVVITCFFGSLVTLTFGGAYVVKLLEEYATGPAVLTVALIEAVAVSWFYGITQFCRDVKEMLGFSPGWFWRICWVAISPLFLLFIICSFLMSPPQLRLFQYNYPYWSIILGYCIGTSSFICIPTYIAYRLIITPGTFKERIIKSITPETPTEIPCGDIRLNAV

IC50 (hα2A receptor) [nM]	IC50 (hα2C receptor) [nM]	IC50 (h5-HT transporter) [nM]	IC50 (hα2B receptor) [nM]	Structure (SMILES)
2	1	12.6	–	COc1cc2c(c(Br)c1OC)OCC1C2=NOC1CN1CCN(C/C(C)=C/c2ccccc2)CC1 (stereo not drawn) [Compound 1, 6-Bromo-7,8-dimethoxy-3-[4-(2-methyl-3-phenyl-allyl)-piperazin-1-ylmethyl]-3a,4-dihydro-3H-chromeno[4,3-c]isoxazole]
1.58	0.398	31.6	–	COc1cc2c(c(C)c1OC)OC[C@@H]1C2=NO[C@H]1CN1CCN(C/C(C)=C/c2ccccc2)CC1 (single isomer, unassigned) [Compound 3, 7,8-dimethoxy-6-methyl-3-[4-(2-methyl-3-phenyl-allyl)-piperazin-1-ylmethyl]-3a,4-dihydro-3H-chromeno[4,3-c]isoxazole]
63.1	15.8	10	6.31	CCNC(=O)Nc1cccc2c1OCC1C2=NOC1CN1CCN(CC(C)=Cc2ccccc2)CC1 (stereo not drawn) [Compound 17]
6.31	0.794	39.8	1.58	COc1cc2c(c(N3CCN(C)CC3)c1OC)OC[C@@H]1C2=NO[C@H]1CN1CCN(C/C(C)=C/c2ccccc2)CC1 (single isomer, unassigned) [Compound 2, 7,8-dimethoxy-3-[4-(2-methyl-3-phenyl-allyl)-piperazin-1-ylmethyl]-6-(4-methyl-piperazin-1-yl)-3a,4-dihydro-3H-chromeno [4,3-c]isoxazole]
31.6	3.98	25.1	2	CC(=O)Nc1cccc2c1OCC1C2=NOC1CN1CCN(CC(C)=Cc2ccccc2)CC1 (stereo not drawn) [Compound 22]
6.31	1.26	63.1	3.98	CCOC(=O)c1c(OC)c(OC)cc2c1OC[C@@H]1C2=NO[C@H]1CN1CCN(C/C(C)=C/c2ccccc2)CC1 (single isomer, unassigned) [Compound 4, 7,8-dimethoxy-3-[4-(2-methyl-3-phenyl-allyl)-piperazin-1-ylmethyl]-3a,4-dihydro-3H-chromeno[4,3-c]isoxazole-6-carboxylic acid ethyl ester]
100	39.8	31.6	25.1	COCC(=O)OCCOc1cccc2c1OCC1C2=NOC1CN1CCN(CC(C)=Cc2ccccc2)CC1 (single isomer, unassigned) [Compound 24]
126	3.98	126	6.31	COCC(=O)OCCOc1cccc2c1OCC1C2=NOC1CN1CCN(CC(C)=Cc2ccccc2)CC1 (stereo not drawn) [Compound 12]
25.1	1.26	63.1	2	CC(=Cc1ccccc1)CN1CCN(CC2ON=C3c4c(O)cccc4OCC32)CC1 (stereo not drawn) [Compound 9]
2.51	1.26	1000	3.16	COCC(=O)OCCOc1cccc2c1C1=NOC(CN3CCN(CC(C)=Cc4ccccc4)CC3)C1CO2 (stereo not drawn) [Compound 14]
25.1	25.1	50.1	31.6	COc1cc2c(c(I)c1OC)OCC1C2=NOC1CN1CCN(CC(C)=Cc2ccc(F)cc2)CC1 (stereo not drawn) [Compound 18]
79.4	31.6	126	25.1	COc1cc2c(c(N3CCC3=O)c1OC)OCC1C2=NOC1CN1CCN(CC(C)=Cc2ccc(F)cc2)CC1 (stereo not drawn) [Compound 20]
2	1.26	158	5.01	COC(=O)c1c(OC)c(OC)cc2c1OCC1C2=NOC1CN1CCN(C/C(C)=C/c2ccccc2)CC1 (single isomer, unassigned) [Compound 5]
2	2.51	251	1	COc1cccc2c1C1=NOC(CN3CCN(CC(C)=Cc4ccccc4)CC3)C1CO2 (stereo not drawn) [Compound 8]
79.4	6.31	39.8	5.01	CCNC(=O)OCCOc1cccc2c1OCC1C2=NOC1CN1CCN(CC(C)=Cc2ccccc2)CC1 (stereo not drawn) [Compound 10]
7.94	1.58	50.1	2	COc1cccc2c1OC[C@@H]1C2=NO[C@H]1CN1CCN(C/C(C)=C/c2ccccc2)CC1 (relative stereo) [Compound 6, 6-methoxy-3-[4-(2-methyl-3-phenyl-allyl)-piperazin-1-ylmethyl]-3a,4-dihydro-3H-chromeno[4,3-c]isoxazole]
3.16	3.16	50.1	2.51	CC(=Cc1ccccc1)CN1CCN(CC2ON=C3c4cccc(OCCO)c4OCC32)CC1 (stereo not drawn) [Compound 11]
